Measurements: patent US20080275226A1, “Medical Use of Paeoniflorin” (priority 2004, published 2008)
Entries after “also recorded” stand apart in the source; their conditions may differ.

Assays:
[1] = system: transient MCAO rats; assay: Transient focal cerebral ischemia model (transient MCAO); type: in vivo; conditions: transient MCAO rat
[2] = molecular target: T1, A2AR (Rattus norvegicus, UniProt P30543); assay: Competitive binding with [3H]-NECA, low-affinity site (two-site fit), rat cerebral cortex synaptic membranes; conditions: two-site competition fit, site 2; 25 nmol/L [3H]-NECA; rat cerebral cortex synaptic membrane; read-out: EC502, competitive binding with [3H]-NECA
T1 construct: Synaptic membranes of rat cerebral cortex are employed in the assay; from tissue; host or cells: rat cerebral cortex synaptic membranes
T1 sequence (P30543 whole entry): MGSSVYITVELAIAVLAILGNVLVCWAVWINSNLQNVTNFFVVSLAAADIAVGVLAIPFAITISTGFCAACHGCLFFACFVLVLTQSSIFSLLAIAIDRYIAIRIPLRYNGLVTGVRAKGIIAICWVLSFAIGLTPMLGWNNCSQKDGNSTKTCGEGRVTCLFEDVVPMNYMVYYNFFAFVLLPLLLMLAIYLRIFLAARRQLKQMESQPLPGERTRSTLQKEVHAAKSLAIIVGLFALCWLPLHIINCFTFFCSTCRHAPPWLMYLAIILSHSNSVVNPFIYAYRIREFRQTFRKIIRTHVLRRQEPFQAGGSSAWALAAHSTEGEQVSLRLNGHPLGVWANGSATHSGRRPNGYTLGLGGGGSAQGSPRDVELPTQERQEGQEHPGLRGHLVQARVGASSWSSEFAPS
Description: (§1) Synaptic membranes of rat cerebral cortex are employed in the assay. After decapitation of the rat, cerebral cortex is separated and homogenized sufficiently in 1:15 (W/V) sucrose solution, after centrifuged, the supernatant is taken and centrifuged again. After discarding the supernatant, the sediment is resuspended in 1:30 (W/V) Tris-HCl buffer (50 mM, PH 7.4), homogenized, washed and then centrifuged, after repeating the wash process 3 times, the sediment is resuspended in 1:5 (W/V) Tris-HCl buffer (50 mM, PH 7.4) again and subpakaged, stored at −80° C. The protein concentration is measured by Bradford method (Bradford M M. A rapid and sensitive method for the quantitation of microgram quantities of proteins utilizing the principle of protein-dye binding. Anal Biochem. 1976; 72: 248-254.). All the above procedures are operated at 4° C.
(§2) The above model is used to evaluate the competitive binding of paeoniflorin with the A1R and A2aR receptor mixed agonist [^3H]-ethyl amide adenosine ([3H]-NECA) and the A1R receptor selective agonist [3H]-CCPA.
(§3) After decapitation of the rat, cerebral cortex was separated immediately, and put it into ice-cold physiological saline. […] The protein concentration was measured by Bradford method. […]

[3] = molecular target: T2, A1R (Rattus norvegicus, UniProt P25099); assay: Competitive binding with [3H]-CCPA, rat cerebral cortex synaptic membranes; conditions: 0.2 nmol/L [3H]-CCPA; rat cerebral cortex synaptic membrane
T2 construct: Synaptic membranes of rat cerebral cortex are employed in the assay; from tissue; host or cells: rat cerebral cortex synaptic membranes
T2 sequence (P25099 1-326): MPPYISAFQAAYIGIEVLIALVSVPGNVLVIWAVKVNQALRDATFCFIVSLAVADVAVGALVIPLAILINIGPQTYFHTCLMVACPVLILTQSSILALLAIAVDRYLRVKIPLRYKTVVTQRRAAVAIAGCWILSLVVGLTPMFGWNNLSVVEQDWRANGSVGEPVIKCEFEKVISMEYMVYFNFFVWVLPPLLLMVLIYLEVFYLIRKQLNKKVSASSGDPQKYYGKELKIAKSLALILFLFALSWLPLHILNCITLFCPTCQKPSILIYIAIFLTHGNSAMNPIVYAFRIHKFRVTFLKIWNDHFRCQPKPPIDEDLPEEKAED
Description: as §1, §2, §3

[4] = Blood pressure and heart rate of conscious rat (tail sleeve sensor); type: in vivo; conditions: 10, 40, 160 mg kg^−1 i.v., 5 min to 2 hr after administration
Description: The conscious rats are used as research subject, sensors of tail sleeve are used to transduce the pressure pulse to phototriodes and convert it into corresponding blood pressure and heart rate values. When the rats calm down, their blood pressure and heart rate values are recorded as the base values. Then, physiological saline, various doses of paeoniflorin and reserpine are injected through caudal vein respectively.
The changes of blood pressure and heart rate before the administration (0 min) and after the administration (5 min to 2 hr) are recorded.
The conscious rats were used as research subject, sensor of tail sleeve were used to transduce the pressure pulse to phototriodes and converted it into corresponding blood pressure value and heart rate values. When the rats calmed down, their blood pressure and heart rate value were recorded as the base values. Then, physiological saline, paeoniflorin (10, 40, 160 mg kg^−1) and reserpine were injected through caudal vein respectively.
The changes of blood pressure and heart rate before the administration (0 min) and after the administration (5 min to 2 hr) were recorded.

[5] = system: permanent MCAO model; assay: Permanent focal cerebral ischemia model (permanent MCAO); type: in vivo, rat
[6] = system: mouse PD model induced by MPTP; assay: MPTP-induced mouse PD model (pole test, TH staining); type: in vivo; conditions: 5 mg·kg^−1 s.c. for 11 days, C57B1/6J mice
Description: The mouse PD model induced by 1-methyl-4-phenyl-1,2,3,6-tetrahydro-pyridine (MPTP) is used to test the effect of paeoniflorin on the ability of climbing pole and the deletion of dopamine neuron of substantia nigra of midbrain in the PD model mouse. Male C57B1/6J mice of 20-25 g are used. The climbing pole time of the mice are measured before experiment. The mice are divided into 5 groups according to the climbing pole time and there are 8 mice in each group. Low dose and middle dose paeoniflorin are administered by subcutaneous injection for 11 days continuously, and 1-methyl-4-phenyl-1,2,3,6-tetrahydro-pyridine (MPTP) is injected intraperitoneally (ip) at 2 hours intervals for 4 times on day 8 of the experiment to induce mouse PD model.
The motor activity of the mice are measured by pole test, the mice are put on to the vertical coarse pole of 55 cm long and 8 mm diameter with head downward, and the time that the mice go downward to all the limbs contact the ground is measured (Hamaue N, Minami M, Terado M, Hirafuji M, Endo T, Machida M, Hiroshige T, Ogata A, Tashiro K, Saito H, Parvez S H. Comparative study of the effects of isatin, an endogenous MAO-inhibitor, and selegiline on bradykinesia and dopamine levels in a rat model of Parkinson's disease induced by the Japanese encephalitis virus. Neurotoxicology. 2004 January; 25(1-2):205-13.).
Male C57B1/6J mice of 20-25 g were used. The climbing pole time of the mice was measured before experiment. The mice were divided into 5 groups according to the climbing pole time and there were 8 mice in each group. Paeoniflorin (2.5 mg kg^−1, 5 mg kg^−1) were administered by subcutaneous injection for 11 days continuously, and 1-methyl-4-phenyl-1,2,3,6-tetrahydro-pyridine (MPTP) was injected intraperitoneally (ip) at 2 hours intervals for 4 times on day 8 of the experiment to induce mouse PD model. The administration schedule was as follows:
The mice were put on to the vertical coarse pole of 55 cm long and 8 mm diameter with head downward, and the time that the mice went downward to all the limbs contacted the ground was measured.
The heart was perfused with 4% paraformaldehyde to be pro-fixed, and then the cerebrum was taken out, and post-fixed with 4% formaldehyde solution for 1 week. Coronal sections were performed continuously (section thick […]). Tyrosine hydroxylase (TH) was used as the specific marker of dopamine neuron. The primary antibody was monoclonal mouse TH antibody (1:1000, Sigma), the second antibody was Alexa fluor 488 fluorescence labeled goat anti-mouse (1:1000, Molecular Probes). Photographs were taken under fluorescence microscope (Olympus DP70), and TH positive cells of substantia nigra were counted.

[7] = molecular target: T2, A1R; assay: Competitive binding with [3H]-NECA, high-affinity site (two-site fit), rat cerebral cortex synaptic membranes
Description: as §1, §2, §3

| Compound | neurological symptom (neurological defect score) ([1]; 5 mg·kg^−1 s.c. at 15 min and 6 h after ischemia) | injury of cerebral subcortical nucleus and cerebral cortex caused by ischemia ([1]; 5 mg·kg^−1 s.c., TTC staining) | EC50 [2] | EC50 [3] | blood pressure of conscious rats [4] | heart rate of conscious rats [4] | blood pressure of conscious rats ([4]; listed as Paeoniflorin) | heart rate of conscious rats ([4]; listed as Paeoniflorin) | injury of cerebral subcortical nucleus and cerebral cortex caused by ischemia, dose dependence ([5]; 2.5, 5, 10 mg·kg^−1 s.c., TTC staining) | deletion of dopaminergic neuron induced by MPTP (TH staining, substantia nigra) [6] | motor dysfunction (bradykinesia) caused by MPTP, pole test [6] | deletion of dopaminergic neuron induced by MPTP (TH staining, substantia nigra) ([6]; listed as Paeoniflorin) | motor dysfunction (bradykinesia) caused by MPTP, pole test ([6]; listed as Paeoniflorin) | selectivity EC502/EC501 ([7]; A1R over A2AR, [3H]-NECA two-site fit) | EC50 ([7]; two-site competition fit, site 1, 25 nmol/L [3H]-NECA, rat cerebral cortex synaptic membrane, read-out: EC501, competitive binding with [3H]-NECA) | effect of DPCPX on the protection by paeoniflorin ([5]; DPCPX s.c. 15 min before ischemia + paeoniflorin 10 mg·kg^−1 s.c.) |
| --- | --- | --- | --- | --- | --- | --- | --- | --- | --- | --- | --- | --- | --- | --- | --- | --- |
| β-D-Glucopyranoside,56-[(benzoyloxy)methyl]tetrahydro-5-hydroxy-2-methyl-2,5-methano-1H-3,4-dioxacyclobuta[cd]Pentalen-1a(2H)-yl,[lar-claα,2β,3aα,5aα,5bα]] [paeoniflorin] | improves the neurological symptom; also recorded: obviously improved the neurological symptom | significantly decreases the injury; also recorded: significantly decreased the defect | 5000 nM | 19.8 nM | does not affect | does not affect | did not affect | did not affect | decreases the injury of cerebral subcortical nucleus and cerebral cortex caused by ischemia dose-dependently; also recorded: dose-dependently decreased the defect | antagonize the deletion of dopaminergic neuron | significantly improve the motor dysfunction | significantly antagonized | significantly antagonized | 360 times | 13.9 nM |  |
| CCCn1c(=O)c2[nH]c(C3CCCC3)nc2n(CCC)c1=O [DPCPX] |  |  |  |  |  |  |  |  |  |  |  |  |  |  |  | this effect can be antagonized; also recorded: block the protection of paeoniflorin; also recorded: this effect could be inhibited |
